Assay results published in US20230146795A1, “ENHANCEMENT OF ANTI-TUMOR ACTIVITY OF SHP2 INHIBITOR PYRIMIDINONE IN COMBINATION WITH NOVEL CANCER MEDICINES IN CANCERS” (TAIHO PHARMACEUTICAL CO., LTD., priority 2020, published 2023).

Legend:
Type in all cases: cell-based
[1] = system: MV-4-11; experiment: Anti-proliferation assay (CellTiter-Glo 2.0), combination index, MV-4-11
Description: (§1) Cell lines were obtained from ATCC or Health Science Research Resources Bank.
(§2) 384 well culture plate (781086, Greiner Bio-One International) was used for cell survival rate measurement assay. Each cell lines were collected by ordinary method, then suspended in indicated medium containing 10% fetal bovine serum in table 3. The number of cells seeded per well was set to 500 cells/20 μL. After incubation at 37° C. for 24 hours under 5% CO2, Compound 1 and additional compound having an antitumor effect or a vehicle (DMSO) was added to each well by using D300e Digital Dispenser (Tecan). The concentration of Compound 1 was set to 10 concentrations. The concentration of each anti-cancer reagents set to 8 concentrations including 0 nM. After adding the medicine to the cells, the cells were further incubated at 37° C. for 3 days under 5% CO2. Cell survival rates were calculated by adding 20 μL of CellTiter-Glo(registered trademark) 2. 0 (Promega) solution to each well, incubating the cells at room temperature for 10 minutes, and then measuring the chemiluminescence intensity of each well using a plate reader (ARVO).
(§3) A combination index (CI) value at each combined concentration of the medicines was determined.

[2] = system: RMG-I; experiment: Anti-proliferation assay (CellTiter-Glo 2.0), combination index, RMG-I
Description: as §1, §2, §3

[3] = system: NCI-H358; experiment: Anti-proliferation assay (CellTiter-Glo 2.0), combination index, NCI-H358
Summary of the method: (§4)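 Cells were seeded at 500 cells/well in medium with 10% FBS and exposed to agents at 8 concentrations including 0 nM, for 3 days at 37° C under 5% CO2. Survival was read by CellTiter-Glo 2.0 luminescence, and combination index was determined at each combined concentration.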

[4] = system: RT4; experiment: Anti-proliferation assay (CellTiter-Glo 2.0), combination index, RT4; conditions: for Description (combinatory effect by CI): Compound 1:combination drug molar ratio 1:27
Summary of the method: as §4

[5] = Compound 1 1.52 + combination drug 123 nmol/L (1:81)
[6] = Compound 1 4.57 + combination drug 370 nmol/L (1:81)
[7] = Compound 1 13.7 + combination drug 1110 nmol/L (1:81)
[8] = Compound 1 41.2 + combination drug 3330 nmol/L (1:81)
[9] = Compound 1 123 + combination drug 10000 nmol/L (1:81)
[10] = Compound 1 1.52 nmol/L + Palbociclib 123 nmol/L, molar ratio 1:81
[11] = Compound 1 13.7 nmol/L + Palbociclib 1110 nmol/L, molar ratio 1:81
[12] = Compound 1 41.2 nmol/L + Palbociclib 3330 nmol/L, molar ratio 1:81
[13] = Compound 1 123 nmol/L + Palbociclib 10000 nmol/L, molar ratio 1:81
[14] = Compound 1 41.2 nmol/L + Palbociclib 1110 nmol/L, molar ratio 1:27
[15] = Compound 1 123 nmol/L + Palbociclib 3330 nmol/L, molar ratio 1:27
[16] = Compound 1 370 nmol/L + Palbociclib 10000 nmol/L, molar ratio 1:27
[17] = Compound 1 13.7 + combination drug 370 nmol/L (1:27)
[18] = Compound 1 41.2 + combination drug 1110 nmol/L (1:27)
[19] = Compound 1 123 + combination drug 3330 nmol/L (1:27)
[20] = Compound 1 370 + combination drug 10000 nmol/L (1:27)
[21] = Compound 1 41.2 + combination drug 370 nmol/L (1:9)
[22] = Compound 1 123 + combination drug 1110 nmol/L (1:9)
[23] = Compound 1:combination drug molar ratio 1:9
[24] = Compound 1 370 + combination drug 3330 nmol/L (1:9)
[25] = Compound 1 1110 + combination drug 10000 nmol/L (1:9)
[26] = Compound 1 13.7 + combination drug 13.7 nmol/L (1:1)
[27] = Compound 1 41.2 + combination drug 41.2 nmol/L (1:1)
[28] = Compound 1 123 + combination drug 123 nmol/L (1:1)

SMILES: CC[C@H](Nc1ncnc2[nH]cnc12)c1nc2cccc(F)c2c(=O)n1-c1ccccc1 [Idelalisib]
- CI [1, 5]: 0.301
- Fa [1, 5]: 0.2988
- CI [1, 6]: 0.600
- Fa [1, 6]: 0.3705
- CI [1, 7]: 0.330
- Fa [1, 7]: 0.7136
- CI [1, 8]: 0.262
- Fa [1, 8]: 0.8924
- CI [1, 9]: 0.273
- Fa [1, 9]: 0.9566
- CI [2, 5]: 0.778
- Fa [2, 5]: 0.0902
- CI [2, 7]: 0.511
- Fa [2, 7]: 0.2747
- CI [2, 8]: 0.333
- Fa [2, 8]: 0.5012
- CI [2, 9]: 0.570
- Fa [2, 9]: 0.6059
- Description (combinatory effect by CI) ([2]; Compound 1:combination drug molar ratio 1:81): Synergy (0.3-0.7)

SMILES: CC(=O)c1c(C)c2cnc(Nc3ccc(N4CCNCC4)cn3)nc2n(C2CCCC2)c1=O [Palbociclib]
- CI [1, 10]: 0.827
- Fa [1, 10]: 0.1698
- CI [1, 11]: 0.520
- Fa [1, 11]: 0.6523
- CI [1, 12]: 0.699
- Fa [1, 12]: 0.7944
- CI [1, 13]: 0.565
- Fa [1, 13]: 0.9297
- Description ([1]; combination effect, Compound 1 + Palbociclib, molar ratio 1:81): Synergy (0.3-0.7)
- CI [2, 11]: 0.411
- Fa [2, 11]: 0.3192
- CI [2, 12]: 0.271
- Fa [2, 12]: 0.4189
- CI [2, 13]: 0.225
- Fa [2, 13]: 0.5120
- CI [3, 14]: 0.774
- Fa [3, 14]: 0.1141
- CI [3, 15]: 0.695
- Fa [3, 15]: 0.2564
- CI [3, 16]: 0.833
- Fa [3, 16]: 0.4277

SMILES: COc1cc2c(Nc3ccc(Br)cc3F)ncnc2cc1OCC1CCN(C)CC1 [Vandetanib]
- CI [4, 17]: 0.486
- Fa [4, 17]: 0.3118
- CI [4, 18]: 0.444
- Fa [4, 18]: 0.5143
- CI [4, 19]: 0.570
- Fa [4, 19]: 0.6645
- CI [4, 20]: 0.541
- Fa [4, 20]: 0.8261
- Description (combinatory effect by CI) [4]: Synergy (0.3-0.7)
- CI [1, 6]: 0.912
- Fa [1, 6]: 0.5454
- CI [1, 7]: 0.557
- Fa [1, 7]: 0.8322
- CI [1, 8]: 0.503
- Fa [1, 8]: 0.9448
- CI [1, 9]: 0.294
- Fa [1, 9]: 0.9916
- CI [2, 21]: 0.428
- Fa [2, 21]: 0.4951
- CI [2, 22]: 0.938
- Fa [2, 22]: 0.5602
- Description (combinatory effect by CI) [2, 23]: Synergy (0.3-0.7)
- CI [3, 21]: 0.322
- Fa [3, 21]: 0.2982
- CI [3, 22]: 0.300
- Fa [3, 22]: 0.5211
- CI [3, 24]: 0.589
- Fa [3, 24]: 0.6208
- CI [3, 25]: 0.733
- Fa [3, 25]: 0.8142
- Description (combinatory effect by CI) [3, 23]: Synergy (0.3-0.7)

SMILES: CC1(C)CCC(CN2CCN(c3ccc(C(=O)NS(=O)(=O)c4ccc(NCC5CCOCC5)c([N+](=O)[O-])c4)c(Oc4cnc5[nH]ccc5c4)c3)CC2)=C(c2ccc(Cl)cc2)C1 [Venetoclax]
- CI [4, 17]: 0.479
- Fa [4, 17]: 0.1751
- CI [4, 18]: 0.497
- Fa [4, 18]: 0.3605
- CI [4, 19]: 0.888
- Fa [4, 19]: 0.5099
- CI [4, 20]: 0.888
- Fa [4, 20]: 0.8781
- Description (combinatory effect by CI) [4]: Synergy (0.3-0.7)
- CI [1, 26]: 0.424
- Fa [1, 26]: 0.7436
- CI [1, 27]: 0.080
- Fa [1, 27]: 0.9696
- CI [1, 28]: 0.007
- Fa [1, 28]: 0.9987
- CI [2, 22]: 0.687
- Fa [2, 22]: 0.4133
- CI [2, 24]: 0.601
- Fa [2, 24]: 0.5921
- CI [2, 25]: 0.668
- Fa [2, 25]: 0.9240
- Description (combinatory effect by CI) [2, 23]: Synergy (0.3-0.7)
